Format in all cases: cell-based
In assay [1] the test system is human adipocytes. Nature of the assay: Effect of propanolol on agent-induced glycerol release. The conditions noted are these: for Glycerol Release, No Agent (medium concentration in millimolar): propanolol alone. The procedure: (§1) Human pre-adipocytes were isolated by liposuction and maintained in AGM for three weeks in order to permit the pre-adipocytes to differentiate to become mature adipocytes. AGM was removed, and adipocytes were incubated in Krebs-Ringers buffer comprising 0.1% fatty acid-free BSA at 37° C. for five hours in the presence of selected concentrations (10^−9 to 10^−5 molar) of one of Schistocera gregaria AKH II, cockroach hypertrehalosemic factor (obtained from Sigma Chemical Co, St. Louis, Mo., catalog number P0175), and Locusta migratoria AKH I (obtained from American Peptide Co., Sunnyvale, Calif., catalog number 60-9-18). Glycerol released from the adipocytes was assayed using a commercially available kit (GPO-trinder assay kit available form Sigma Chemical Company, St. Louis, Mo.).
Glycerol release assays were performed as described in Example 2, except that the assays were performed using single selected concentrations of one of cockroach hypertrehalosemic factor, Locusta migratoria AKH I, and isoproterenol and multiple selected concentrations of propanolol.

Assay [2] deals with human adipocytes. Nature of the assay: Glycerol release assay. The settings on record: for Lipid mobilizing activity: control hormones, Example 2; for Ability to promote lipid mobilization in human adipocytes: conclusion of Example 2. As for the experimental part: as §1
A similar experiment was performed, in which glycerol release from adipocytes was assessed in the presence of the Locusta migratoria AKH I or the cockroach hypertrehalosemic factor or in the presence of isoproterenol.

In assay [3] the test system is human adipocytes. Nature of the assay: Release of tritium label from radiolabeled palmitate (lipid mobilizing activity). The settings on record: for Ability to mobilize lipids in adipocytes: conclusion of Example 1, murine adipocytes. The procedure: Lipid mobilizing activity was assessed by assaying release of tritium label from radiolabeled palmitate. This assay was performed by maintaining human pre-adipocytes in Adipocyte Growth Medium (AGM), which is Dulbecco's Modified Eagle's Medium (DMEM) mixed 1:1 by volume with Ham's F-10 medium. Ham's F-10 medium comprises 15 millimolar HEPES buffer adjusted to pH 7.4 and supplemented with biotin, pantothenate, human recombinant insulin, dexamethasone, fungicide, bactericide, and 3% (v/v) fetal bovine serum). Pre-adipocytes differentiated to become mature adipocytes by three weeks of maintenance in AGM. On the day prior to assay, the adipocytes were washed and incubated overnight in Krebs-Ringers buffer comprising 0.1% fatty acid-free bovine serum albumin (BSA) and comprising 1 microCurie per milliliter of tritiated (9,10-^3H) palmitate. The following day, the medium was removed, and the cells were washed three times […]. Isoproterenol (0 to 5×10^−8 molar), Schistocera gregaria AKH II (0 to 5×10^−5 molar), or Krebs-Ringer buffer (with 0.1% fatty acid-free BSA) containing neither of these was added to the cell suspension in a volume of 150 microliters. The suspensions were incubated for 4 hours at 37° C., and then 100 microliters of each sample was subjected to scintillation counting to detect released label in the supernatant. The total amount of label incorporated was determined for each well by solubilizing the cells using 1% sodium dodecyl sulfate and subjecting the entire contents of the well to scintillation counting. Fractional release of label was calculated by dividing the amount of label detected in cell supernatant by the total amount of label detected in the supernatant and in the cells remaining in the well, and percentage release was calculated by multiplying fractional release by 100.
A similar study was done using the same methods, except that cockroach hypertrehalosemic factor (0 to 5×10^−5 molar) was used in place of S. gregaria AKH II.
A similar tritium label release experiment performed using Heliothis zea AKH II and Locusta migratoria, except that a two-hour incubation period was used in place of a 4 hour incubation period.

The mark [4] stands for this setting: agent 1 × 10^−8 molar, 4 hours, 37° C., Table 5 experiment.
Where [5] appears, read: agent 1 × 10^−9 molar, 4 hours, 37° C., Table 5 experiment.
Where [6] appears, read: agent 1 × 10^−10 molar, 4 hours, 37° C., Table 5 experiment.
Where [7] appears, read: agent 1 × 10^−5 molar, five hours, 37° C., Table 8 experiment.
[8] abbreviates: agent 1 × 10^−6 molar, five hours, 37° C., Table 8 experiment.
Where [9] appears, read: agent 1 × 10^−7 molar, five hours, 37° C., Table 8 experiment.
The mark [10] stands for this setting: agent 1 × 10^−8 molar, five hours, 37° C., Table 8 experiment.
[11] abbreviates: agent 1 × 10^−9 molar, five hours, 37° C., Table 8 experiment.
The mark [12] stands for this setting: agent 1 × 10^−6, Table 9 experiment.
Setting [13] is: agent 1 × 10^−7, Table 9 experiment.
Setting [14] is: agent 1 × 10^−8, Table 9 experiment.

Bridges are numbered along the chain shown (N, C = ends). Where no end group is shown, it is not given here.

As for `CC(C)NCC(O)COc1cccc2ccccc12` (stereo not shown) [Propanolol, propanolol], the “Inhibition by propanolol of glycerol release induced by isoproterenol” value in assay [1] (adipocytes) is recorded as “able to inhibit glycerol release”. The “Glycerol Release, No Agent (medium concentration in millimolar)” value was 0.0463 ± 0.0042 millimolar in assay [1] (1 × 10^−5 molar), 0.0417 ± .00072 millimolar in assay [1] (1 × 10^−6 molar), 0.0399 ± 0.0069 millimolar in assay [1] (1 × 10^−7 molar) and 0.0399 ± 0.0083 millimolar in assay [1] (1 × 10^−8 molar).
“SYSMEHFRWGKPV (Ac-SYSMEHFRWGKPV-NH2; listed as Insect sp.) [alpha-melanocyte stimulating hormone, reference compound]”: the Lipid mobilizing activity entry in assay [2] is “No lipid mobilizing activity could be detected”.
Turning to “ELNFSTGW (listed as Schistocerca gregaria) [Schistocera gregaria AKH II, insect adipokinetic hormone of the desert locust]”, the “% Tritium Label Release with Agent” value amounted to 14.28% in assay [3] (agent 1 × 10^−5 molar, 4 hours, 37° C., Table 5 experiment); 13.38% in assay [3] (agent 1 × 10^−6 molar, 4 hours, 37° C., Table 5 experiment); 10.76% in assay [3] (agent 1 × 10^−7 molar, 4 hours, 37° C., Table 5 experiment); 10.76% in assay [3] (setting [4]); 9.6% in assay [3] (setting [5]); 10.74% in assay [3] (setting [6]). Besides, the “% Tritium Label Release with Agent” value in assay [3] (agent 5 × 10^−5 molar, 4 hours, 37° C., Table 5 experiment) turned out to be 16.65%; in assay [3] (agent 5 × 10^−6 molar, 4 hours, 37° C., Table 5 experiment), 14.94%; in assay [3] (agent 5 × 10^−7 molar, 4 hours, 37° C., Table 5 experiment) it was 11.31%. For the same compound, the “Ability to mobilize lipids in adipocytes” value in assay [3] is “able to mobilize lipids”. For the same compound, the “Glycerol Release with Agent (medium concentration in millimolar)” value (from here on “Glycerol Release with Agent”) in assay [2] (setting [7]) amounted to 0.693 millimolar; in assay [2] (setting [8]) it was 0.628 millimolar; in assay [2] (setting [9]), 0.530 millimolar; in assay [2] (setting [10]), 0.523 millimolar; in assay [2] (setting [11]) it was 0.486 millimolar. Also, the “Ability to promote lipid mobilization in human adipocytes” value in assay [2] was “able to promote lipid mobilization”.
In the case of “DFDMLRCMLGRVYRPCWQV (disulfide 7-16 (inferred); listed as Insect sp.) [melanocyte concentrating hormone, reference compound]”, the Lipid mobilizing activity result in assay [2] is on record as “No lipid mobilizing activity could be detected”.
As to “ELNFTPNWGT (listed as Schistocerca gregaria) [Locusta migratoria AKH I, insect adipokinetic hormone, American Peptide Co. catalog number 60-9-18]”, the “Glycerol Release with Agent” value in assay [1] (agent 10 micromolar, propanolol 0 molar) is on record as 0.0871 ± 0.0134 millimolar; in assay [1] (agent 10 micromolar, propanolol 1 × 10^−5 molar), 0.2214 ± 0.0287 millimolar; in assay [1] (agent 10 micromolar, propanolol 1 × 10^−6 molar) it was 0.2169 ± 0.0294 millimolar; in assay [1] (agent 10 micromolar, propanolol 1 × 10^−7 molar), 0.2486 ± 0.0249 millimolar; in assay [2] (agent 1 × 10^−5, Table 9 experiment), 0.0871 ± 0.0134 millimolar; in assay [2] (setting [7]), 0.691 millimolar. Moreover, the “Glycerol Release with Agent” value came to 0.0427 ± 0.0129 millimolar in assay [2] (setting [12]); 0.467 millimolar in assay [2] (setting [8]); 0.0336 ± 0.0082 millimolar in assay [2] (setting [13]); 0.490 millimolar in assay [2] (setting [9]); 0.0209 ± 0.0110 millimolar in assay [2] (setting [14]); 0.476 millimolar in assay [2] (setting [10]). Also, in assay [2] (setting [11]), the “Glycerol Release with Agent” value is listed as 0.611 millimolar. In addition, the “% Tritium Label Release with Agent” value in assay [3] (agent 1 × 10^−5 molar, two-hour incubation, Table 7) is given as 10.8%; in assay [3] (agent 1 × 10^−6 molar, two-hour incubation, Table 7) it was 7.52%; in assay [3] (agent 1 × 10^−7 molar, two-hour incubation, Table 7), 6.34%; in assay [3] (agent 1 × 10^−8 molar, two-hour incubation, Table 7) it was 7.00%; in assay [3] (agent 1 × 10^−9 molar, two-hour incubation, Table 7), 7.44%; in assay [3] (agent 1 × 10^−10 molar, two-hour incubation, Table 7) it was 7.62%. In assay [3], the “Ability to mobilize lipids in adipocytes” value is “able to mobilize lipids”. In addition, the “Ability to promote lipid mobilization in human adipocytes” value in assay [2] is on record as “able to promote lipid mobilization”.
`CC(C)NCC(O)c1ccc(O)c(O)c1` (stereo not shown) [Isoproterenol, isoproterenol, reference compound]: the “Glycerol Release with Agent” value stood at 0.5172 millimolar in assay [1] (agent 1 micromolar, propanolol 0 molar); 0.2305 millimolar in assay [1] (agent 1 micromolar, propanolol 1 × 10^−5 molar); 0.411 millimolar in assay [1] (agent 1 micromolar, propanolol 1 × 10^−6 molar); 0.6533 millimolar in assay [1] (agent 1 micromolar, propanolol 1 × 10^−7 molar); 0.5172 ± 0.1659 millimolar in assay [2] (setting [12]); 0.2169 ± 0.0316 millimolar in assay [2] (setting [13]). In addition, the “Glycerol Release with Agent” value was determined as 0.1325 ± 0.0244 millimolar in assay [2] (setting [14]) and 0.0381 ± 0.011 millimolar in assay [2] (agent 1 × 10^−9, Table 9 experiment). For the same compound, the “% Tritium Label Release with Agent” value in assay [3] (setting [4]) is 15.58%; in assay [3] (agent 1 × 10^−8 molar, 4 hours, 37° C., Table 6 experiment) it was 9.8%; in assay [3] (setting [5]), 12.67%; in assay [3] (agent 1 × 10^−9 molar, 4 hours, 37° C., Table 6 experiment), 6.67%; in assay [3] (setting [6]), 11.11%; in assay [3] (agent 1 × 10^−10 molar, 4 hours, 37° C., Table 6 experiment), 8.97%. Also, the “% Tritium Label Release with Agent” value was found to be 9.9% in assay [3] (agent 1 × 10^−11 molar, 4 hours, 37° C., Table 5 experiment); 5.87% in assay [3] (agent 1 × 10^−11 molar, 4 hours, 37° C., Table 6 experiment); 16.99% in assay [3] (agent 5 × 10^−8 molar, 4 hours, 37° C., Table 5 experiment); 10.8% in assay [3] (agent 5 × 10^−8 molar, 4 hours, 37° C., Table 6 experiment); 14.14% in assay [3] (agent 5 × 10^−9 molar, 4 hours, 37° C., Table 5 experiment); 5.93% in assay [3] (agent 5 × 10^−9 molar, 4 hours, 37° C., Table 6 experiment). For the same compound, the “% Tritium Label Release with Agent” value was found to be 11.21% in assay [3] (agent 5 × 10^−10 molar, 4 hours, 37° C., Table 5 experiment); 7.58% in assay [3] (agent 5 × 10^−10 molar, 4 hours, 37° C., Table 6 experiment); 10.62% in assay [3] (agent 5 × 10^−11 molar, 4 hours, 37° C., Table 5 experiment); 6.96% in assay [3] (agent 5 × 10^−11 molar, 4 hours, 37° C., Table 6 experiment); 10.12% in assay [3] (agent 5 × 10^−12 molar, 4 hours, 37° C., Table 5 experiment); 6.81% in assay [3] (agent 5 × 10^−12 molar, 4 hours, 37° C., Table 6 experiment).

The record behind these values is patent US20040224898A1, “Compositions and methods for promoting lipid mobilization in humans” (priority 2002, published 2004).
